From US20240344108A1, “GALACTOSE RAPID QUANTITATIVE DETECTION SYSTEM AND USE THEREOF” (Avalon HepaPOC Limited, priority 2018, published 2024)
Like-named read-outs stand apart in the source and are kept apart here. Blank lines part the entries; values can stand above or below the compound they belong to.

What was measured:
[1] = target: T1, galactose dehydrogenase (Pseudomonas fluorescens, UniProt P11886); test: Stabilizer analysis: linearity test of the galactose test strip system with different stabilizers; details: 0.05%, 2.5% and 5.5%
T1 construct: purchased
T1 sequence (P11886 1-304): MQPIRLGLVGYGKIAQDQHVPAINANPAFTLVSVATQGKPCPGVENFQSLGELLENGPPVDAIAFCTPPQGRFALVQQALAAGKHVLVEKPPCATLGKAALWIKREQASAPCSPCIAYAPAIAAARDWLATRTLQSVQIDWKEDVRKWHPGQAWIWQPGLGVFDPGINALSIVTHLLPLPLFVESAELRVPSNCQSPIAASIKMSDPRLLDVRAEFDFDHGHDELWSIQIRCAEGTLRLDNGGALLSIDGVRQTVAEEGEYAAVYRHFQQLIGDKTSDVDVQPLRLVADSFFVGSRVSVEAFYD
Method: Galactochek Blood Galactose Meters, the galactose rapid detection system (galactose dehydrogenase concentration: 13.39%) with different types of stabilizers and concentrations, and YSI 2900 Automatic analyzer.
All chemicals were purchased from Sigma-Aldrich (St. Louis, MO). A stock solution of galactose at 20 mg/mL was prepared with reverse osmosis water. The standard solutions are used to prepare different galactose concentration blood sample. The final concentration of galactose in blood were 200, 450, 800, 1150 and 1500 μg/mL.
Obtain the R^2 value of the linearity test result of different strip test groups to evaluate that which type of stabilizer and concentration were suitable to be used in the system. In addition, % CV≤20% at galactose concentration range of 200-250 μg/mL, and % CV≤15% at galactose concentration range of 251-1500 μg/mL.

[2] = target: T1, galactose dehydrogenase; test: Electrochemical response after galactose dehydrogenase immobilization and drying onto the biosensor with protectant; details: protectant used as stabilizer during immobilization and drying
Description: The electrochemistry-based biosensor is designed as a test strip of electrode containing a reaction zone where galactose within the blood sample is to react with galactose metabolic enzymes, leading to the generation of an electrochemical signal. Two galactose-catalyzing enzymes, galactose dehydrogenase (GD) and galactose oxidase (GO) capable of generating electrochemical information, were selected for embedded immobilization and drying onto the electrode to enable electrochemical signal production. […] However, GO catalyzes the oxidation of primary alcohols and sugars (including d-galactose and lactose) in the presence of oxygen, thus impacting the accuracy of quantitation. Aggravatingly, excessive oxygen can compete with the electron mediator of the oxidase-based amperometric strip for electrons, thus resulting in underestimation of galactose measurement. This poses a challenge in point-of-care (POC) scenarios where fresh whole blood sample, rich in oxygen due to prolonged exposure to the atmosphere, or from critically ill patients receiving oxygen support, are utilized.
Galactose dehydrogenase, on the other hand, catalyzes d-galactose with high specificity without the involvement of oxygen. The enzyme was therefore used to be immobilized and dried onto the biosensor. […]

[3] = Intravenous injection galactose GSP test (blood galactose after intravenous galactose); format: in vivo; details: human, plasma, 0.5 g/kg, average ± standard error
Method: The conventional detection method is used for intravenous injection of 0.5 g/kg galactose after fasting for 8 hours, and measured the galactose concentration in plasma after 60 minutes (Tang H. S. et al. (1992) Digestion, 52:222-231; Ranek L. et al. (1983) Clin. Physiol. 3:173-178). The measurement method comprises: drawing a measurement curve according to a relationship between different concentrations of standard galactose solutions and light absorption values thereof; adding HClO4 in the extracted blood and shaking for mixing, then taking supernatant by centrifugation; adding KOH into the supernatant and shaking for mixing, then taking supernatant by centrifugation again; and then adding galactose dehydrogenase into the supernatant and placing in a dark room for 60 minutes to avoid color reaction inaccuracy for preparing of a specimen and measuring the light absorption value thereof; and finally finding the concentration value by the measurement curve. However, the detection process is complicated and time-consuming, and requires using a variety of medicaments. Therefore, it takes lengthy procedure to learn the detecting result.
The oral administration galactose OGSP values of the subjects in the liver function normal group are in the range 318±27 μg/ml (average±standard error) with the minimum value 18 μg/ml and maximum value 887 μg/ml. […] The oral administration galactose OGSP values of the subjects in the liver function severely impaired group are in the range 777±48 μg/ml with the minimum value 293 μg/ml and maximum value 1499 μg/ml. […] Particularly, the oral administration galactose OGSP value is higher than the intravenous injection galactose GSP value. […] The oral administration galactose OGSP values of the subjects in the liver function severely impaired group are mainly in the range of 681-873 μg/ml (average+2*standard error). […] Therefore, further liver function tests should be taken in the subjects whose OGSP value is greater than 370 μg/ml. In additional to intravencous injection, similar results were obtained by other injection or other administration ways.

[4] = clinical; details: human, in vivo
Description: The user needs to drink the oral galactose composition first, wherein the content of the galactose is 1%-80%, preferably 4%-40%, by weight of the total galactose composition, wherein the buffer solution can be not added or can be added to the total weight of 0.001%-5%, and the antioxidant can be not added or can be added to the total weight of 0.001%-5%. Appropriate formula can be prepared by selecting the buffer and the antioxidant, and adding the content of the following ingredients: antioxidant of 0.01M-1M selected from a group including vitamin C, sodium bisulfite, vitamin A, vitamin E, flavonoids, polyphenols, Ethylenediaminetetraacetic acid (EDTA), Diethylenetriaminepentaacetic acid (DTPA), and NTA-Nitrilotriacetate acid (NTA); and/or buffer solution of 0.01M-1M selected from a group including acetic buffer, citrate buffer, phosphate buffer, acetate buffer, carbonate buffer, ascorbic acid buffer, and triethanolamine buffer with adjustment of the pH values ranged 4.0-9.0. A stable formula can be obtained by adding 0.01% citrate buffer and 0.5% sodium bisulfite with a pH value of 4.5. […]
Before sampling biological sample, wipe the fingertips with alcohol cotton. […] In addition, the potential of this readout can be transmitted to the others including medical practitioners through Bluetooth or similar connection through a mobile phone or computer. […]

[5] = average ± standard error, literature values, cited from earlier work

Structure (SMILES): NCC(=O)O [Glycine, glycine]
- suitability as stabilizer in the system [1]: not suitable

Structure (SMILES): OC[C@@H](O)[C@@H](O)[C@H](O)[C@H](O)CO [Mannitol, mannitol]
- suitability as stabilizer in the system [1]: not suitable

Structure (SMILES): OC[C@H]1O[C@@](CO)(O[C@H]2O[C@H](CO)[C@@H](O)[C@H](O)[C@H]2O)[C@@H](O)[C@@H]1O [Sucrose, sucrose]
- suitability as stabilizer in the system [1]: not suitable

Structure (SMILES): OC[C@H]1O[C@H](O[C@H]2O[C@H](CO)[C@@H](O)[C@H](O)[C@H]2O)[C@H](O)[C@@H](O)[C@@H]1O [Trehalose, trehalose]
- galactose-dependent electrochemical signal of GD-based biosensor [2]: successfully preserved the activity of enzyme

- concentration at 60 min ([3]; Mild or moderate impairment of liver function (N = 31)): 359 ± 10 µg/mL
- concentration at 60 min ([3]; Normal liver function (N = 56)): 174 ± 8 µg/mL
- concentration at 60 min ([3]; Severe impairment of liver function (N = 40)): 667 ± 29 µg/mL
- concentration at 60 min ([4]; OGSP maximum value): 887 µg/mL
- concentration at 60 min ([4]; OGSP values mainly in the range): 510 to 670 µg/mL
Structure (SMILES): O=C[C@H](O)[C@@H](O)[C@@H](O)[C@H](O)CO [galactose]
- IV GSP, Digestion 1992; 52: 222-231 ([5]; Mild or moderate impairment of liver function): 423 ± 26.0 µg/mL
- IV GSP, Digestion 1992; 52: 222-231 ([5]; Normal liver function): 247 ± 16.5 µg/mL
- IV GSP, Digestion 1992; 52: 222-231 ([5]; Severe impairment of liver function): 630 ± 41.0 µg/mL
